# Data as given in US4562202A, “N-Acyl hexahydroindole-2-carboxylic acids and anti-hypertensive use thereof” (Hoechst Aktiengesellschaft, priority 1982, dated 1985).
# Tested on: pressor reaction induced by angiotensin I
# Assay: Inhibition of the pressor reaction induced by 310 ng of angiotensin I, intraduodenal administration to the anaesthetized rat
# Assay type: in vivo
# Conditions: 0.5 h, 310 ng angiotensin I, 30 min. after administration, read-out: ED50 (50% inhibition of the pressor reaction induced by 310 ng of angiotensin I 30 min. after administration)
# Method: intraduodenal administration to the anaesthetized rat, 50% inhibition of the pressor reaction induced by 310 ng of angiotensin I 30 min. after administration in the dose . . . =ED50 : […]
row,Structure (SMILES),ED50 [mg/kg]
1,"CCOC(=O)[C@H](CC(=O)c1ccccc1)N[C@@H](C)C(=O)N1[C@H](C(=O)O)C[C@@H]2CCC=C[C@@H]21 [N-(1S-carboethoxy-3-oxo-3-phenylpropyl)-S-alanyl-cis-2,3,3a,4,5,7a-hexahydro[1H]indole-2S-endocarboxylic acid]",0.39
2,"CCOC(=O)[C@H](CC(=O)c1ccccc1)N[C@@H](C)C(=O)N1[C@@H]2C=CCC[C@@H]2C[C@H]1C(=O)O [N-(1S-carboethoxy-3-oxophenylpropyl)-S-alanyl-cis-2,3,3a,4,5,7a-hexahydro[1H]indole-2S-exocarboxylic acid]",0.5
3,"CCOC(=O)[C@H](CCc1ccccc1)N[C@@H](C)C(=O)N1[C@H](C(=O)O)C[C@@H]2CCC=C[C@@H]21 [N-(1S-carboethoxy-3-phenylpropyl)-S-alanyl-cis-2,3,3a,4,5,7a-hexahydro [1H]indole-2S-endo-carboxylic acid]",0.04
4,"CCOC(=O)[C@H](CCc1ccccc1)N[C@@H](C)C(=O)N1C(C(=O)O)CC2CCC=CC21 (stereo partly drawn) [N-(1S-carboethoxy-3-phenylpropyl)-S-alanyl-cis-2,3,3a,4,5,7a-hexahydro[1H]indole-2R,S-endo-carboxylic acid]",0.08
5,"CCOC(=O)[C@H](CCc1ccccc1)N[C@@H](C)C(=O)N1[C@@H]2C=CCC[C@@H]2C[C@H]1C(=O)O [N-(1S-carboethoxy-3-phenylpropyl)-S-alanyl-cis-2,3,3a,4,5,7a-hexahydro[1H]indole-2S-exo-carboxylic acid]",0.07
6,"C[C@H](N[C@@H](CCc1ccccc1)C(=O)O)C(=O)N1[C@H](C(=O)O)C[C@@H]2CCC=C[C@@H]21 [N-(1S-carboxy-3-phenylpropyl)-S-alanyl-cis-2,3,3a,4,5,7a-hexahydro[1H]indole-2S-endo-carboxylic acid]",0.6
7,"C[C@H](N[C@@H](CCc1ccccc1)C(=O)O)C(=O)N1[C@@H]2C=CCC[C@@H]2C[C@H]1C(=O)O [N-(1S-carboxy-3-phenylpropyl)-S-alanyl-cis-2,3,3a,4,5,7a-hexahydro[1H]indole-2S-exo-carboxylic acid]",0.7
